These results are taken from patent US20230365592A1 (Agios Pharmaceuticals, Inc., priority 2022, published 2023).

The target in the assay is T1, human PAH with the R408W mutation (Homo sapiens, UniProt P00439, R408W).
T1 construct: expressed in transfected cells
T1 sequence (P00439 1-452 R408W): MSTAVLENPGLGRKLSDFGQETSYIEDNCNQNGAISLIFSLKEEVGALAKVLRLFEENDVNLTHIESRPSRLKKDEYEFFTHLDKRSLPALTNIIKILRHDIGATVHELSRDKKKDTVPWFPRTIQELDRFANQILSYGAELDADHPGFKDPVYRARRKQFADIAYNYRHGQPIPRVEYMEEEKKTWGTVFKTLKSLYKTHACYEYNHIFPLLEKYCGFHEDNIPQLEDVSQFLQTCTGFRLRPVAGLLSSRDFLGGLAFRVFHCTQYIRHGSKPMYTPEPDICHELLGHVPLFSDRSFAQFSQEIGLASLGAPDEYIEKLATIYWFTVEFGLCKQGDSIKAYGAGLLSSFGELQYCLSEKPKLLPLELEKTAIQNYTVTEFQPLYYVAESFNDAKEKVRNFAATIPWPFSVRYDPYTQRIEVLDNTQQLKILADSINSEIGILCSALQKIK
The assay is described as follows: Cell Based Phenylalanine Flux Assay.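 Note: after compound treatment, cells received sepiapterin plus isotope-labelled Phenylalanine for 4 hours, then labelled Tyrosine in the medium was quantified, 10-point 2-fold dilution series run in duplicate.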 Conditions: A375 cells expressing R408W PAH; 24 hrs with compound, then 20 µM sepiapterin and 800 µM 13C9,15N-Phenylalanine for 4 hours; 13C-Tyrosine by LC-MS; average where tested multiple times; read-out: AC50.

By AC50 is commonly meant the concentration giving half of the maximal activity seen.

As for `FC(F)c1cccc2cc(C3c4nc[nH]c4CCN3c3ncccn3)nn12` (centres unmarked), the half-maximal activity concentration (AC50) was 1 to 5 µM.

Take `COCc1ncc(C(=O)N2CCc3[nH]cnc3C2c2cc3ccccn3n2)s1` (centres unmarked) [listing 1 of 2 here]: the half-maximal activity concentration (AC50) is > 5 µM.

With `COc1cccn2nc(C3c4nc[nH]c4CCN3C(=O)c3cnn4cc(N(C)C)ccc34)cc12` (centres unmarked) [listing 1 of 2 here], the half-maximal activity concentration (AC50) was > 5 µM.

With `COc1cccn2nc(C3c4nc[nH]c4CCN3C(=O)c3cnn4cc(-c5cnn(C)c5)ccc34)cc12` (centres unmarked) [listing 1 of 2 here], the concentration at half-maximal activity (AC50) was > 5 µM.

Turning to `COc1ccc2c(C(=O)N3CCc4[nH]cnc4C3c3cc4c(OC)cccn4n3)cnn2c1` (centres unmarked) [listing 1 of 2 here], the AC50 was > 5 µM.

Consider `COc1ccc2c(C(=O)N3CCc4[nH]cnc4C3c3cc4cccc(C(F)F)n4n3)cnn2c1` (centres unmarked) [listing 1 of 2 here], for which the half-maximal activity concentration (AC50) is > 5 µM.

As to `COCc1ccc2c(C(=O)N3CCc4[nH]cnc4C3c3cc4cccc(Cl)n4n3)cnn2c1` (centres unmarked) [listing 1 of 2 here], the half-maximal activity concentration (AC50) is > 5 µM.

With `Cc1ccc2c(C(=O)N3CCc4[nH]cnc4C3c3cc4cccc(Cl)n4n3)cnn2c1` (centres unmarked) [listing 1 of 2 here], the AC50 is > 5 µM.

Take `Cc1ccc2c(C(=O)N3CCc4[nH]cnc4C3c3cc4cccc(C)n4n3)cnn2c1` (centres unmarked) [listing 1 of 2 here]: the AC50 is > 5 µM.

With `COCCNc1nnc(C(=O)N2CCc3[nH]cnc3C2c2cc3ccccn3n2)o1` (centres unmarked) [listing 1 of 2 here], the concentration at half-maximal activity (AC50) was > 5 µM.

With `CN(C)Cc1ccc2c(C(=O)N3CCc4[nH]cnc4C3c3cc4cccc(C(F)F)n4n3)cnn2c1` (centres unmarked) [listing 1 of 2 here], the half-maximal activity concentration (AC50) was > 5 µM.

`O=C(c1nnc(N2CC(F)C2)o1)N1CCc2[nH]cnc2C1c1cc2ccccn2n1` (centres unmarked): the half-maximal activity concentration (AC50) fell in the range of 1 to 5 µM.

Consider `FC(F)c1cccn2nc(C3c4nc[nH]c4CCN3c3nc4ccccc4o3)cc12` (centres unmarked), for which the concentration at half-maximal activity (AC50) was > 5 µM.

Turning to `O=C(c1nnc(-c2cnn(C(F)(F)F)c2)o1)N1CCc2[nH]cnc2C1c1cc2c(OC(F)(F)F)cccn2n1` (centres unmarked), the AC50 was 1 to 5 µM.

Take `FC(F)(F)c1cccn2nc(C3c4nc[nH]c4CCN3c3nc4ccccc4o3)cc12` (centres unmarked): the concentration at half-maximal activity (AC50) was > 5 µM.

For the compound `FC(F)c1nnc(N2CCc3[nH]cnc3C2c2cc3cccc(Cl)n3n2)o1` (centres unmarked), the AC50 lay within 1 to 5 µM.

Turning to `Cc1nnc(N2CCc3[nH]cnc3C2c2cc3cccc(F)n3n2)o1` (centres unmarked), the AC50 was > 5 µM.

For the compound `Fc1cccc2cc(C3c4nc[nH]c4CCN3c3ncccn3)nn12` (centres unmarked), the AC50 is 1 to 5 µM.

As for `Cc1cccc2cc(C3c4nc[nH]c4CCN3c3ncccn3)nn12` (centres unmarked), the AC50 was 1 to 5 µM.

Consider `COc1cccn2nc(C3c4nc[nH]c4CCN3C(=O)c3nnc(-c4cnccn4)o3)cc12` (centres unmarked), for which the AC50 lay in the range of 1 to 5 µM.

For the compound `COc1cccn2nc(C3c4nc[nH]c4CCN3C(=O)c3nnc(-c4ncccn4)o3)cc12` (centres unmarked), the AC50 is > 5 µM.

As to `Cc1ccc2c(C(=O)N3CCc4[nH]cnc4C3c3cc4cccc(C(F)(F)F)n4n3)cnn2c1` (centres unmarked), the half-maximal activity concentration (AC50) was in the range of 1 to 5 µM.

On to `FC(F)c1nnc(N2CCc3[nH]cnc3C2c2cc3cccc(C(F)(F)F)n3n2)o1` (centres unmarked), for which the AC50 lay in the range of 1 to 5 µM.

In the case of `Fc1cccc2cc(C3c4nc[nH]c4CCN3c3nnc(C(F)F)o3)nn12` (centres unmarked), the AC50 is 1 to 5 µM.

For `COCc1ncc(C(=O)N2CCc3[nH]cnc3C2c2cc3ccccn3n2)s1` (centres unmarked) [listing 2 of 2 here], the AC50 was 1 to 5 µM.

Turning to `Cc1nnc(N2CCc3[nH]cnc3C2c2cc3c(C(F)(F)F)cccn3n2)o1` (centres unmarked), the AC50 lay in the range of 1 to 5 µM.

`Cc1nnc(N2CCc3[nH]cnc3C2c2cc3cccc(C(F)(F)F)n3n2)o1` (centres unmarked): the half-maximal activity concentration (AC50) is 1 to 5 µM.

Turning to `Cc1nnc(N2CCc3[nH]cnc3C2c2cc3cccc(C)n3n2)o1` (centres unmarked), the AC50 lay within 1 to 5 µM.

Consider `CC(C)(C)c1nnc(N2CCc3[nH]cnc3C2c2cc3c(C(F)(F)F)cccn3n2)o1` (centres unmarked), for which the AC50 was 1 to 5 µM.

Take `COc1cccn2nc(C3c4nc[nH]c4CCN3C(=O)c3cnn4cc(N(C)C)ccc34)cc12` (centres unmarked) [listing 2 of 2 here]: the AC50 lay within 1 to 5 µM.

On to `COc1cccn2nc(C3c4nc[nH]c4CCN3C(=O)c3nnc(-c4ncccc4F)o3)cc12` (centres unmarked), for which the AC50 fell in the range of 1 to 5 µM.

Consider `O=C(c1cnn2cc(N3CCOCC3)ccc12)N1CCc2[nH]cnc2C1c1cc2c(F)cccn2n1` (centres unmarked), for which the AC50 was in the range of 1 to 5 µM.

As for `COc1cccn2nc(C3c4nc[nH]c4CCN3C(=O)c3cnn4cc(N5CCOCC5)ccc34)cc12` (centres unmarked), the concentration at half-maximal activity (AC50) is > 5 µM.

As for `COc1cccn2nc(C3c4nc[nH]c4CCN3C(=O)c3cnn4cc(-c5cnn(C)c5)ccc34)cc12` (centres unmarked) [listing 2 of 2 here], the AC50 lay in the range of 1 to 5 µM.

For `Cc1cccn2nc(C3c4nc[nH]c4CCN3C(=O)c3cnn4cc(N5CCOCC5)ccc34)cc12` (centres unmarked), the AC50 is 1 to 5 µM.

For the compound `O=C(c1cnn2cc(N3CCOCC3)ccc12)N1CCc2[nH]cnc2C1c1cc2cccc(C(F)(F)F)n2n1` (centres unmarked), the AC50 fell in the range of 1 to 5 µM.

Take `COCc1ccc2c(C(=O)N3CCc4[nH]cnc4C3c3cc4c(C(F)F)cccn4n3)cnn2c1` (centres unmarked): the half-maximal activity concentration (AC50) was 1 to 5 µM.

Take `COc1ccc2c(C(=O)N3CCc4[nH]cnc4C3c3cc4c(OC)cccn4n3)cnn2c1` (centres unmarked) [listing 2 of 2 here]: the AC50 lay within 1 to 5 µM.

For `FC(F)c1cccn2nc(C3c4nc[nH]c4CCN3c3nnc(N4CCOCC4)o3)cc12` (centres unmarked), the half-maximal activity concentration (AC50) is > 5 µM.

As to `FC(F)(F)c1cccn2nc(C3c4nc[nH]c4CCN3c3nnc(N4CCOCC4)o3)cc12` (centres unmarked), the AC50 was > 5 µM.

For `Fc1cccn2nc(C3c4nc[nH]c4CCN3c3nnc(N4CCOCC4)o3)cc12` (centres unmarked), the AC50 fell in the range of 1 to 5 µM.

With `Cc1cccn2nc(C3c4nc[nH]c4CCN3c3nnc(N4CCOCC4)o3)cc12` (centres unmarked), the concentration at half-maximal activity (AC50) lay in the range of 1 to 5 µM.

Turning to `COCc1ccc2c(C(=O)N3CCc4[nH]cnc4C3c3cc4cccc(C(F)F)n4n3)cnn2c1` (centres unmarked), the AC50 was 1 to 5 µM.

Regarding `COc1ccc2c(C(=O)N3CCc4[nH]cnc4C3c3cc4cccc(C(F)F)n4n3)cnn2c1` (centres unmarked) [listing 2 of 2 here], the concentration at half-maximal activity (AC50) lay within 1 to 5 µM.

Regarding `COCc1ccc2c(C(=O)N3CCc4[nH]cnc4C3c3cc4cccc(Cl)n4n3)cnn2c1` (centres unmarked) [listing 2 of 2 here], the AC50 fell in the range of 1 to 5 µM.

Turning to `CN(C)C(=O)c1nnc(N2CCc3[nH]cnc3C2c2cc3c(C(F)F)cccn3n2)o1` (centres unmarked), the concentration at half-maximal activity (AC50) is 1 to 5 µM.

Turning to `COCCc1ccc2c(C(=O)N3CCc4[nH]cnc4C3c3cc4cccc(C(F)(F)F)n4n3)cnn2c1` (centres unmarked), the half-maximal activity concentration (AC50) fell in the range of 1 to 5 µM.

For the compound `COCc1ccc2c(C(=O)N3CCc4[nH]cnc4C3c3cc4cccc(C)n4n3)cnn2c1` (centres unmarked), the AC50 lay within 1 to 5 µM.

Regarding `COCc1ccc2c(C(=O)N3CCc4[nH]cnc4C3c3cc4c(OC)cccn4n3)cnn2c1` (centres unmarked), the AC50 lay within 1 to 5 µM.

Take `O=C(c1cnn2cc(C3CC3)ccc12)N1CCc2[nH]cnc2C1c1cc2cccc(C(F)(F)F)n2n1` (centres unmarked): the AC50 lay within 1 to 5 µM.

Consider `Cc1cccc2cc(C3c4nc[nH]c4CCN3C(=O)c3cnn4cc(C5CC5)ccc34)nn12` (centres unmarked), for which the half-maximal activity concentration (AC50) is 1 to 5 µM.

In the case of `COc1ccc2c(C(=O)N3CCc4[nH]cnc4C3c3cc4cccc(C(F)(F)F)n4n3)cnn2c1` (centres unmarked), the concentration at half-maximal activity (AC50) fell in the range of 1 to 5 µM.

Regarding `Cc1ccc2c(C(=O)N3CCc4[nH]cnc4C3c3cc4cccc(C(F)F)n4n3)cnn2c1` (centres unmarked), the AC50 was 1 to 5 µM.

On to `O=C(c1cnn2ccccc12)N1CCc2[nH]cnc2C1c1cc2cccc(C(F)F)n2n1` (centres unmarked), for which the AC50 is 1 to 5 µM.

Take `Cc1ccc2c(C(=O)N3CCc4[nH]cnc4C3c3cc4cccc(Cl)n4n3)cnn2c1` (centres unmarked) [listing 2 of 2 here]: the AC50 was in the range of 1 to 5 µM.

Consider `Cc1ccc2c(C(=O)N3CCc4[nH]cnc4C3c3cc4cccc(C)n4n3)cnn2c1` (centres unmarked) [listing 2 of 2 here], for which the AC50 was in the range of 1 to 5 µM.

Take `COCCNc1nnc(C(=O)N2CCc3[nH]cnc3C2c2cc3ccccn3n2)o1` (centres unmarked) [listing 2 of 2 here]: the half-maximal activity concentration (AC50) was > 5 µM.

As for `O=C(c1nnc(NC2CC2)o1)N1CCc2[nH]cnc2C1c1cc2ccccn2n1` (centres unmarked), the AC50 lay in the range of 1 to 5 µM.

For the compound `CN(C)Cc1ccc2c(C(=O)N3CCc4[nH]cnc4C3c3cc4cccc(C(F)F)n4n3)cnn2c1` (centres unmarked) [listing 2 of 2 here], the AC50 fell in the range of 1 to 5 µM.

In the case of `CN(C)Cc1ccc2c(C(=O)N3CCc4[nH]cnc4C3c3cc4cccc(Cl)n4n3)cnn2c1` (centres unmarked), the half-maximal activity concentration (AC50) lay in the range of 1 to 5 µM.

For `CN(C)Cc1ccc2c(C(=O)N3CCc4[nH]cnc4C3c3cc4cccc(F)n4n3)cnn2c1` (centres unmarked), the concentration at half-maximal activity (AC50) lay in the range of 1 to 5 µM.

As for `Cc1ncoc1C(=O)N1CC2(CC2)c2[nH]cnc2C1c1cc2ccccn2n1` (centres unmarked), the AC50 lay in the range of 1 to 5 µM.
